Results reported in patent publication US12180526B2, “Subterranean microalgae for production of microbial biomass, substances, and compositions” (Kuehnle AgroSystems, Inc., priority 2019, dated 2024).

Test: DPPH Radical Scavenging Activity
Conditions: DPPH 0.06 mM in methanol
Procedure: Extraction and isolation of C-PC are carried out as is known in the art (Wu et al. 2016) using commercial grade biomass from a source in Hawaii. The C-PC is then further purified by ultrafiltration using a 10 kDa membrane to obtain an absorbance ratio of A620/A280 of 1.4 and stored frozen as a lyophilized powder. For testing, powder is solubilized in phosphate-citrate buffer to 0.4 mg/mL. Samples are tested for thermal stability at 65° C. for 30 minutes, at pH 6.0, per Example 3. The addition of EPS at a concentration of 1% (w/v; produced from resolubilized lyophilized powder with no added grinding) results in a reduction of the CR value by 13% compared to the control lacking stabilizing agents after exposure to 65° C. for 30 min at pH 6.0. This indicates added stabilization, which can likely be optimized with additional testing. Antioxidant capacity is measured using the DPPH Radical Scavenging Activity as is known in the art (Alam et al. 2013), with the modification of using DPPH (1,1-diphenyl-2-picrylhydrazyl; Sigma-Aldrich D9132) in methanol (0.06 mM), and readings taken on a Biotek Synergy HTX multi-mode microplate reader.

antioxidant activity IC50: 1.8 mg/mL
Substance: phycocyanin
